# Test results reported in patent US10316017B2, “COT modulators and methods of use thereof” (Gilead Sciences, Inc., priority 2015, dated 2019).
# Where two headings read alike, the source gives them in different places.
# Tests used:
# [1] = target: T1, human Cot catalytic domain (30-397 amino acids) (Homo sapiens, UniProt P41279); experiment: High Throughput Cot Biochemical Assay (KinEASE TR-FRET); conditions: Cot KinEASE TR-FRET, 400 μM ATP; read-out: IC50 HTRF
# T1 construct: Purified recombinant human Cot catalytic domain (30-397 amino acids) was purchased from Cama Biosciences; purchased Cama Biosciences (so in the source)
# T1 sequence (P41279 30-397): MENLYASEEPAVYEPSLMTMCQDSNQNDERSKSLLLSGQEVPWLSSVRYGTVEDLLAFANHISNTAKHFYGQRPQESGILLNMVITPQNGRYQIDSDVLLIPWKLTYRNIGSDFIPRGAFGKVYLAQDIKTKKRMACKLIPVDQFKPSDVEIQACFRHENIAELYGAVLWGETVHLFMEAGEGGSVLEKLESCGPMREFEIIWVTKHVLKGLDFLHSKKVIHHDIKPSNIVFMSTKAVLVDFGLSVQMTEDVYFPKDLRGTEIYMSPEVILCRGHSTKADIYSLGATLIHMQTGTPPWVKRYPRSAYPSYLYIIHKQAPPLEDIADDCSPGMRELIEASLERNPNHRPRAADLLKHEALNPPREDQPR
# Summary of the method: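 Reaction of 5 nM recombinant human Cot catalytic domain (aa 30-397) with 1 μM STK3 peptide (XL665-labeled) and 400 μM ATP in 10 mM MOPS pH 7.0, 10 mM MgOAc, 1 mM DTT, 0.5 mg/mL BSA, 0.1% DMSO. Phosphopeptide detected by TR-FRET with europium anti-phospho antibody.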
# [2] = tested on: TNFα production in LPS-stimulated human monocytes; experiment: Cot Monocyte TNFα Cell Based Assay; conditions: LPS-stimulated human monocytes, TNFα TR-FRET, read-out: EC50 TNF
# Summary of the method: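 Cells at 5,000/well were pretreated with compound for 1 h at 37 °C (0.5% DMSO final), then stimulated with 50 pg/ml LPS for 4 h at 37 °C. Supernatant TNFα was measured by two-antibody TR-FRET after overnight room-temperature incubation; values are percent of control between unstimulated and stimulated wells.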
Compound,IC50 [1] [nM],"EC50 ([2]; Homo sapiens, Monocyte) [nM]",EC50 [2] [nM]
"Cc1c(-c2ccccn2)cccc1[C@H](Nc1cc(Cl)c2ncc(C#N)c(NCC(C)(C)C)c2c1)c1cn(C2(C(F)(F)F)CC2)nn1 [Example 1118, (S)-8-chloro-6-(((2-methyl-3-(pyridin-2-yl)phenyl)(1-(1-(trifluoromethyl)cyclopropyl)-1H-1,2,3-triazol-4-yl)methyl)amino)-4-(neopentylamino)quinoline-3-carbonitrile]",28,921,–
"Cc1c(-c2cn(C)cn2)cccc1[C@H](Nc1cc(Cl)c2ncc(C#N)c(NCC(C)(C)C)c2c1)c1cn(C2(C(F)(F)F)CC2)nn1 [Example 1119, (S)-8-chloro-6-(((2-methyl-3-(1-methyl-1H-imidazol-4-yl)phenyl)(1-(1-(trifluoromethyl)cyclopropyl)-1H-1,2,3-triazol-4-yl)methyl)amino)-4-(neopentylamino)quinoline-3-carbonitrile]",11,351,–
"Cc1c(-c2cncn2C)cccc1[C@H](Nc1cc(Cl)c2ncc(C#N)c(NCC(C)(C)C)c2c1)c1cn(C2(C(F)(F)F)CC2)nn1 [Example 1120, (S)-8-chloro-6-(((2-methyl-3-(1-methyl-1H-imidazol-5-yl)phenyl)(1-(1-(trifluoromethyl)cyclopropyl)-1H-1,2,3-triazol-4-yl)methyl)amino)-4-(neopentylamino)quinoline-3-carbonitrile]",6,88,–
"Cc1c(-c2ccnnc2)cccc1[C@H](Nc1cc(Cl)c2ncc(C#N)c(NCC(C)(C)C)c2c1)c1cn(C2(C(F)(F)F)CC2)nn1 [Example 1121, (S)-8-chloro-6-(((2-methyl-3 (pyridazin-4-yl)phenyl)(1-(1-(trifluoromethyl)cyclopropyl)-1H-1,2,3-triazol-4-yl)methyl)amino)-4-(neopentylamino)quinoline-3-carbonitrile]",2,59,–
"Cc1c(-c2cncn2C)cccc1[C@H](Nc1cc(Cl)c2ncc(C#N)c(NCC(C)(C)C)c2c1)c1cn(C2(C(F)F)CC2)nn1 [Example 1122, (S)-8-chloro-6-(((1-(1-(difluoromethyl)cyclopropyl)-1H-1,2,3-triazol-4-yl)(2-methyl-3-(1-methyl-1H-imidazol-5-yl)phenyl)methyl)amino)-4-(neopentylamino)quinoline-3-carbonitrile]",2,47,–
"Cc1c(-c2ccnnc2)cccc1[C@H](Nc1cc(Cl)c2ncc(C#N)c(NCC(C)(C)C)c2c1)c1cn(C2(C(F)F)CC2)nn1 [Example 1123, (S)-8-chloro-6-(((1-(1-(difluoromethyl)cyclopropyl)-1H-1,2,3-triazol-4-yl)(2-methyl-3-(pyridazin-4-yl)phenyl)methyl)amino)-4-(neopentylamino)quinoline-3-carbonitrile]",2,42,–
"CC(C)(C)CNc1c(C#N)cnc2c(C#N)cc(N[C@@H](c3ccccc3)c3cn(C45CC(C4)C5)nn3)cc12 [Example 1124, (S)-6-(((1-(bicyclo[1.1.1]pentan-1-yl)-1H-1,2,3-triazol-4-yl)(phenyl)methyl)amino)-4-(neopentylamino)quinoline-3,8-dicarbonitrile]",4,138,–
"Cc1c(C#N)cccc1[C@H](Nc1cc(C#N)c2ncc(C#N)c(NCC(C)(C)C(F)(F)F)c2c1)c1cn(C2(C(F)F)CC2)nn1 [Example 1125, (S)-6-(((3-cyano-2-methylphenyl)(1-(1-(difluoromethyl)cyclopropyl)-1H-1,2,3-triazol-4-yl)methyl)amino)-4-((3,3,3-trifluoro-2,2-dimethylpropyl)amino)quinoline-3,8-dicarbonitrile]",4,51,–
"Cc1c(C#N)cccc1[C@H](Nc1cc(C#N)c2ncc(C#N)c(NCC(C)(C)C(F)(F)F)c2c1)c1cn(C2(C(F)F)CC2)nn1 [Example 1126, (S)-6-(((3-cyano-2-methylphenyl)(1-(1-(difluoromethyl)cyclopropyl)-1H-1,2,3-triazol-4-yl)methyl)amino)-4-((3,3,3-trifluoro-2,2-dimethylpropyl)amino)quinoline-3,8-dicarbonitrile]",5,–,66
"Cc1c(F)cccc1[C@H](Nc1cc(C#N)c2ncc(C#N)c(NCC(C)(C)C)c2c1)c1cn(C2(C(F)(F)F)CC2)nn1 [Example 1127, (S)-6-(((3-fluoro-2-methylphenyl)(1-(1-(trifluoromethyl)cyclopropyl)-1H-1,2,3-triazol-4-yl)methyl)amino)-4-(neopentylamino)quinoline-3,8-dicarbonitrile]",13,221,–
"CC(C)(C)CNc1c(C#N)cnc2c(C#N)cc(N[C@@H](c3cccc(C4(C#N)CC4)c3)c3cn(C4(C(F)(F)F)CC4)nn3)cc12 [Example 1128, (S)-6-(((3-(1-cyanocyclopropyl)phenyl)(1-(1-(trifluoromethyl)cyclopropyl)-1H-1,2,3-triazol-4-yl)methy;)amino)-4-(neopentylamino)quinoline-3,8-dicarbonitrile]",9,307,–
"CC(C)(C)CNc1c(C#N)cnc2c(C#N)cc(N[C@@H](c3cccc(C4(C#N)CC4)c3)c3cn(C45CC(C4)C5)nn3)cc12 [Example 1129, (S)-6-(((1-(bicyclo[1.1.1]pentan-1-yl)-1H-1,2,3-triazol-4-yl)(3-(1-cyanocyclopropyl)phenyl)methyl)amino)-4-(neopentylamino)quinoline-3,8-dicarbonitrile]",5,148,–
"CC(C)(C)CNc1c(C#N)cnc2c(C#N)cc(N[C@@H](c3ccc(F)cc3)c3cn(C45CC(C4)C5)nn3)cc12 [Example 1130, (S)-6-(((1-(bicyclo[1.1.1]pentan-1-yl)-1H-1,2,3-triazol-4-yl)(4-fluorophenyl)methyl)amino)-4-(neopentylamino)quinoline-3,8-dicarbonitrile]",10,103,–
"Cc1c(-c2cnco2)cccc1[C@H](Nc1cc(C#N)c2ncc(C#N)c(NCC(C)(C)C)c2c1)c1cn(C2(C(F)(F)F)CC2)nn1 [Example 1131, (S)-6-(((2-methyl-3-(oxazol-5-yl)phenyl)(1-(1-(trifluoromethyl)cyclopropyl)-1H-1,2,3-triazol-4-yl)methyl)amino)-4-(neopentylamino)quinoline-3,8-dicarbonitrile]",3,38,–
"Cc1c(-c2cc[nH]n2)cccc1[C@H](Nc1cc(C#N)c2ncc(C#N)c(NCC(C)(C)C)c2c1)c1cn(C2(C(F)(F)F)CC2)nn1 [Example 1132, (S)-6-(((2-methyl-3-(1H-pyrazol-3-yl)phenyl)(1-(1-(trifluoromethyl)cyclopropyl)-1H-1,2,3-triazol-4-yl)methyl)amino)-4-(neopentylamino)quinoline-3,8-dicarbonitrile]",8,175,–
"Cc1c(-c2cn[nH]c2)cccc1[C@H](Nc1cc(C#N)c2ncc(C#N)c(NCC(C)(C)C)c2c1)c1cn(C2(C(F)(F)F)CC2)nn1 [Example 1133, (S)-6-(((2-methyl-3-(1H-pyrazol-4-yl)phenyl)(1-(1-(trifluoromethyl)cyclopropyl)-1H-1,2,3-triazol-4-yl)methyl)amino)-4-(neopentylamino)quinoline-3,8-dicarbonitrile]",4,27,–
"Cc1c(-c2ccnnc2)cccc1[C@H](Nc1cc(C#N)c2ncc(C#N)c(NCC(C)(C)C)c2c1)c1cn(C2(C(F)(F)F)CC2)nn1 [Example 1134, (S)-6-(((2-methyl-3-(pyridazin-4-yl)phenyl)(1-(1-(trifluoromethyl)cyclopropyl)-1H-1,2,3-triazol-4-yl)methyl)amino)-4-(neopentylamino)quinoline-3,8-dicarbonitrile]",2,57,–
"Cc1c(-c2cncn2C)cccc1[C@H](Nc1cc(C#N)c2ncc(C#N)c(NCC(C)(C)C)c2c1)c1cn(C2(C(F)(F)F)CC2)nn1 [Example 1135, (S)-6-(((2-methyl-3-(1-methyl-1H-imidazol-5-yl)phenyl)(1-(1-(trifluoromethyl)cyclopropyl)-1H-1,2,3-triazol-4-yl)methyl)amino)-4-(neopentylamino)quinoline-3,8-dicarbonitrile]",2,44,–
"Cc1c(-c2cccnc2)cccc1[C@H](Nc1cc(C#N)c2ncc(C#N)c(NCC(C)(C)C)c2c1)c1cn(C2(C(F)(F)F)CC2)nn1 [Example 1136, (S)-6-(((2-methyl-3-(pyridin-3-yl)phenyl)(1-(1-(trifluoromethyl)cyclopropyl)-1H-1,2,3-triazol-4-yl)methyl)amino)-4-(neopentylamino)quinoline-3,8-dicarbonitrile]",4,128,–
"Cc1c(-c2ccncc2)cccc1[C@H](Nc1cc(C#N)c2ncc(C#N)c(NCC(C)(C)C)c2c1)c1cn(C2(C(F)(F)F)CC2)nn1 [Example 1137, (S)-6-(((2-methyl-3-(pyridin-4-yl)phenyl)(1-(1-(trifluoromethyl)cyclopropyl)-1H-1,2,3-triazol-4-yl)methyl)amino)-4-(neopentylamino)quinoline-3,8-dicarbonitrile]",5,70,–
"Cc1c(-c2cnn(C)c2)cccc1[C@H](Nc1cc(C#N)c2ncc(C#N)c(NCC(C)(C)C)c2c1)c1cn(C2(C(F)(F)F)CC2)nn1 [Example 1138, (S)-6-(((2-methyl-3-(1-methyl-1H-pyrazol-4-yl)phenyl)(1-(1-(trifluoromethyl)cyclopropyl)-1H-1,2,3-triazol-4-yl)methyl)amino)-4-(neopentylamino)quinoline-3,8-dicarbonitrile]",4,61,–
